Where two headings read alike, the source gives them in different places.

One assay deals with T1, SIK3 (Homo sapiens, UniProt Q9Y2K2).
T1 construct: purchased SignalChem S12-11G-100
In words: biochemical. Summed up:
(§1)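 Radiometric assay: SIK1, SIK2 or SIK3 phosphorylates AMARA peptide using unlabelled plus [^33P]-γ-ATP, reaction started by ATP addition. Stopped with 150 mM phosphoric acid, filter-harvested and washed; incorporated ^33P counted by scintillation. Controls: 1% DMSO and 10 μM staurosporine final.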

In another assay the target is T2, SIK2 (Homo sapiens, UniProt Q9H0K1).
T2 construct: purchased ThermoFisher Scientific PV4792
In words: biochemical. The note with it: 33P radioactive SIK kinase assay, AMARA peptide, 10 μM ATP. In a few lines: as §1

The target in another assay is T3, SIK1 (Homo sapiens, UniProt P57059).
T3 construct: purchased Carna Biosciences 02-131
The experiment in a line: biochemical. As to conditions: 33P radioactive SIK kinase assay, AMARA peptide, 10 μM ATP; read-out: SIK1 IC50. In a few lines:
as §1

Assay [1] has as its system LPS-induced TNFα secretion in monocyte-derived macrophages (MdM). In words: MdM assay: LPS-triggered TNFα (ELISA). The class given is cell-based, human. As to conditions: LPS-triggered TNFα inhibition. The procedure:
This assay evaluates illustrative compounds of the invention for their inhibition of LPS-induced TNFα and LPS triggered IL-10 secretion in monocyte-derived macrophages.
PBMCs are isolated from human blood samples (buffycoats). The buffy coat is aseptically transferred into a 50 mL Falcon tube, and diluted 1/2 in PBS. Falcon tubes are filled with 20 mL Lymphoprep™, on top of which 25 mL of the buffy coat is carefully added, tubes are centrifuged for 35 min at 400 g in temperature controlled centrifuge, without brake, at 25° C. PBMCs are aspirated from the white interface layer between sample and Lymphoprep™. PBMCs are washed five times in PBS.
PBMCs are centrifuged at 300×g for 10 min and resuspended at a density of 1.0E07 cells/80 μL Miltenyi buffer (PBS, pH 7.4, 1% FBS, 2 mM EDTA).
Starting from this point of the protocol all steps are performed on ice. 20 μL of CD14+ micro-beads are added per 1.0E07 cells, the tube is mixed and incubated for 15 min in the fridge at 4° C. Cell suspension volume is adjusted to total volume of 100 mL using Miltenyi buffer, mixed gently and subsequently centrifuged for 10 min at 300× g. Supernantant is discarded and cell pellet is resuspended in 12 mL of Miltenyi buffer.
Four LS columns are placed in the MACS Separator (magnet) from Miltenyi Biotec, and are prewet by rinsing with 3 mL of MACS buffer per column. Three mL of cell suspension is added onto the column (max 1*10^8 of labelled cells/column), and columns are subsequently washed 3 times with 3 mL of Miltenyi buffer.
The columns are removed from the magnets, and 5 mL of Miltenyi buffer are added to the column to flush out the CD14+ fraction by pushing the plunger into the column. The flushed fractions are collected in a fresh 50 mL Falcon and volume is adjusted to 30 mL using Miltenyi buffer, cells are centrifuged for 10 min at 300× g. The obtained cell pellet is resuspended in 10 mL RPMI w/o FBS, and cell density is determined using a hematologic analyser (Sysmex XS-500i).
On day 10, MdMs are triggered and compound is added.
A compound dilution plate is made in 100% DMSO by 3-fold dilution of 10 mM stock solution. An intermediate dilution plate (10× final concentration) is made by diluting the compound dilution plate 50-fold in RPMI medium.
Medium is carefully removed from cell plates using multichannel pipette, and replaced by 80 μL fresh medium. 10 μL of the 10× final concentration compound is added to the cells and incubated for 1 hour at 37° C. before addition of trigger. No trigger conditions/trigger conditions are spiked with equal final DMSO concentrations of 0.2% DMSO. 10 μL of 10×LPS (final conc. 200 ng/mL) solution are added to all wells except for the ‘no trigger wells’ where 10 μL medium is added. Supernatant is collected after 2 h (IL-10 determination) and after 20 h (TNFα determination) of LPS triggering.
The plate is then washed once with PBST (PBS+0.05% Tween20) and once with PBS followed by the addition of 100 μL of blocking buffer (1% Bovine Serum Albumin (BSA)-5% Sucrose) and plates are sealed and incubated for at least 4 h at RT. After washing the plate once with PBST and once with PBS, 40 μL of standard or sample are added (TNFα standard curve is prepared using a 1/2 serial dilution starting from 16000 pg/mL; dilutions are made in dilution buffer (PBS+1% BSA)). Plates are washed twice with PBST, and once with PBS, after which 35 μL of the detection antibody is added (final concentration 0.25 μg/mL diluted in dilution buffer) and plates are incubated for at least 2 h at RT. Plates are washed twice with PBST, and once with PBS, where after 35 μL of Strep-HRP conjugate (0.5 μg/mL final concentration diluted in dilution buffer) is added. Plates are incubated in the dark, at RT for at least 45 min but no longer than 1 hour. Plates are washed twice with PBST, and once with PBS.
On the technique in general: ELISA stands for enzyme-linked immunosorbent assay.

T1 sequence (Q9Y2K2 whole entry): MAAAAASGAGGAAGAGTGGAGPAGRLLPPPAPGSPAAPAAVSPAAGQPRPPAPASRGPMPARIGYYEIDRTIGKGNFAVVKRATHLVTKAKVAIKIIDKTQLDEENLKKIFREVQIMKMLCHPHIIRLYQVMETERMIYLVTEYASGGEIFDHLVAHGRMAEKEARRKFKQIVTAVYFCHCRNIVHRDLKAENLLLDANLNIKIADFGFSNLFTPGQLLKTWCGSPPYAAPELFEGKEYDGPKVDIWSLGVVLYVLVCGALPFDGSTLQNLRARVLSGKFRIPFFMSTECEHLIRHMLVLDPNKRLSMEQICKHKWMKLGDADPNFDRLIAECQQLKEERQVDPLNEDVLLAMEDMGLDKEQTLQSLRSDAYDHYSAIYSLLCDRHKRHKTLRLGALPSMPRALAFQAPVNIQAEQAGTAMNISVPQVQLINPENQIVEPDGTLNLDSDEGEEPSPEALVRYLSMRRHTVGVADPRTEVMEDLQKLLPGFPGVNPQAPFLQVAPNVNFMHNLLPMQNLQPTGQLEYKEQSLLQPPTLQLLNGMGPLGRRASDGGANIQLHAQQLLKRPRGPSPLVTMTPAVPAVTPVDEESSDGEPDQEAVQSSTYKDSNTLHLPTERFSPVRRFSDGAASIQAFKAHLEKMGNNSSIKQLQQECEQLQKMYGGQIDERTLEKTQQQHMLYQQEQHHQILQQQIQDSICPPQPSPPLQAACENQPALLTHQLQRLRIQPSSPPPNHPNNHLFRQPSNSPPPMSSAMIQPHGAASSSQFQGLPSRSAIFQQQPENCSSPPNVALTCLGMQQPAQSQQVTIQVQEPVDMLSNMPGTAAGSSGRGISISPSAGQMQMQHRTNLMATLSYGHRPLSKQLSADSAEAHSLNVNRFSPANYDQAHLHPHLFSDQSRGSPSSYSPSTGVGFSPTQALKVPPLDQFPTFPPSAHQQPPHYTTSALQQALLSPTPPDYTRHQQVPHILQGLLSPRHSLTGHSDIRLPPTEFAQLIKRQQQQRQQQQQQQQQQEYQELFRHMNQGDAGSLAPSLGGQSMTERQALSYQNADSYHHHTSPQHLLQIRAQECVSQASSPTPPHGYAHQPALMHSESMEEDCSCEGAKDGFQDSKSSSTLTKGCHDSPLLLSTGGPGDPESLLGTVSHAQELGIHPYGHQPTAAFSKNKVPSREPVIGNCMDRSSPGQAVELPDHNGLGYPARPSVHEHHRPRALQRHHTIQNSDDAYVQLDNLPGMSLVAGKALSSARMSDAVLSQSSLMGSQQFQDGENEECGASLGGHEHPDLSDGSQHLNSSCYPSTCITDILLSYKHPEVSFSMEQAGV
T2 sequence (Q9H0K1 whole entry): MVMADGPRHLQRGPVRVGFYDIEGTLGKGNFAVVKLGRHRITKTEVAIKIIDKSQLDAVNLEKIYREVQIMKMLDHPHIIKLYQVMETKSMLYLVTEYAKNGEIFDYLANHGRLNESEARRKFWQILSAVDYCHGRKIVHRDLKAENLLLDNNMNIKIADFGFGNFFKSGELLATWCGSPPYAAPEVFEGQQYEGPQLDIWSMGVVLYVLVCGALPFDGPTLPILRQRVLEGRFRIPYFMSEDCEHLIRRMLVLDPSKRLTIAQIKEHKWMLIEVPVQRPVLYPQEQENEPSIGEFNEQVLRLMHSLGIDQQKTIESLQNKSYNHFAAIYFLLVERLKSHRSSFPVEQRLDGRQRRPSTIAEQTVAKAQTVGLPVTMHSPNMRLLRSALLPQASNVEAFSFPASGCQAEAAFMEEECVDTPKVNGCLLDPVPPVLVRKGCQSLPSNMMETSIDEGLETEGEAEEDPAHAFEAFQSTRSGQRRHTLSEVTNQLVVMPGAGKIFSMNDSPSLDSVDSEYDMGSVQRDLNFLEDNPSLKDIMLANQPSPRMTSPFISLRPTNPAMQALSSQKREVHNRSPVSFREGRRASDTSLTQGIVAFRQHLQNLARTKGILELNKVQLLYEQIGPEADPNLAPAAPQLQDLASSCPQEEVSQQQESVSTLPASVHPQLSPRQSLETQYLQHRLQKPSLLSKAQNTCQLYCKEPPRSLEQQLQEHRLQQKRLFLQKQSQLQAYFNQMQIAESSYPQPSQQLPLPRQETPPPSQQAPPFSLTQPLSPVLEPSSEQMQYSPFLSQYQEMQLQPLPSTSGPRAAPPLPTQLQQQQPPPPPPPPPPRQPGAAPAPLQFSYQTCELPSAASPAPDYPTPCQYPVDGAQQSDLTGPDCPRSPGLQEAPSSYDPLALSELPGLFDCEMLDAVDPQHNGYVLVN
T3 sequence (P57059 whole entry): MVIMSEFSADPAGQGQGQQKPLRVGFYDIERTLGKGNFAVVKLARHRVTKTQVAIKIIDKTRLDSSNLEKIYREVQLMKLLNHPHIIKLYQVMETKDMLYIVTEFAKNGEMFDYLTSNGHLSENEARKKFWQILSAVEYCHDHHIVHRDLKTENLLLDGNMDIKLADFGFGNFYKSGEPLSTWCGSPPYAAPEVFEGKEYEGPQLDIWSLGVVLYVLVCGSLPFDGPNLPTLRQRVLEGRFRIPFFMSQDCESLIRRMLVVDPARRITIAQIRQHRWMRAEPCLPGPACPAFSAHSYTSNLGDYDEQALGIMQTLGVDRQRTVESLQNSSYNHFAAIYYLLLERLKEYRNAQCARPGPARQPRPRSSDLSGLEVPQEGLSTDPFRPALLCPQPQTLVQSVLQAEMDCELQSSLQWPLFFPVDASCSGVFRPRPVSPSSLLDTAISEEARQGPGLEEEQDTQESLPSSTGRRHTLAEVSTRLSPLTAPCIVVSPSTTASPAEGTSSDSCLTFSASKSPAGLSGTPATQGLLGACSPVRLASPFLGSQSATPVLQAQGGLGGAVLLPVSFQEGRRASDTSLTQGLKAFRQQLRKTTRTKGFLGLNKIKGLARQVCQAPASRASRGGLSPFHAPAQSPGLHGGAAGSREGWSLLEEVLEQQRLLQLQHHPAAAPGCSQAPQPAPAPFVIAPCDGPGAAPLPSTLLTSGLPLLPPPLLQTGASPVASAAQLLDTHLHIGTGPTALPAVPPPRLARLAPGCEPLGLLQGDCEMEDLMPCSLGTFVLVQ

In general, IC50 refers to the concentration that inhibits the measured activity by half. In general, EC50 refers to the concentration giving half of the maximal effect. Lower therefore signals an effect from little substance. As to `COc1cc(-n2cnc3cc(-c4cnn(C)c4)ccc32)cc(OC)c1C(=O)N[C@@H]1C[C@H]1CO` [compound 156, N-[(1R,2R)-2-(hydroxymethyl)cyclopropyl]-2,6-dimethoxy-4-[5-(1-methylpyrazol-4-yl)benzimidazol-1-yl]benzamide], the IC50 on SIK3, on SIK2 and on SIK1 was 10 to 100 nM in each case. The EC50 in assay [1] (Homo sapiens, Macrophage) lay in the range of 1000 to 5000 nM.

As to `COc1cc(-n2cnc3cc(-c4cnn(C)c4)ccc32)cc(OC)c1C(=O)N[C@@H]1C[C@H]1C(F)F` [compound 157], the IC50 at SIK3, at SIK2 and at SIK1 was 10 to 100 nM each time. Moreover, the EC50 in assay [1] (Homo sapiens, Macrophage) was 100 to 1000 nM.

As to `COc1cc(-n2cnc3cc(-c4cnn(C)c4)ccc32)cc(OC)c1C(=O)N[C@@H]1CC[C@H]1O` [compound 159, N-[(1R,2R)-2-hydroxycyclobutyl]-2,6-dimethoxy-4-[5-(1-methylpyrazol-4-yl)benzimidazol-1-yl]benzamide], the IC50 against SIK3, on SIK2 and on SIK1 was 10 to 100 nM throughout. The concentration for a half-maximal effect (EC50) in assay [1] (Homo sapiens, Macrophage) was 100 to 1000 nM.

Consider `COc1cc(-n2cnc3cc(-c4cn(C)nn4)ccc32)cc(OC)c1C(=O)NCC(F)(F)F` [compound 160, 2,6-dimethoxy-4-[5-(1-methyltriazol-4-yl)benzimidazol-1-yl]-N-(2,2,2-trifluoroethyl)benzamide], for which the IC50 at SIK3, on SIK2 and on SIK1 was 10 to 100 nM in each case. Moreover, the EC50 in assay [1] (Homo sapiens, Macrophage) fell in the range of 100 to 1000 nM.

For `COc1cc(-n2cnc3cc(-c4cnn(C)c4)ccc32)cc(OC)c1C(=O)NCCN` [compound 163, N-(2-aminoethyl)-2,6-dimethoxy-4-[5-(1-methylpyrazol-4-yl)benzimidazol-1-yl]benzamide], the IC50 on SIK3, on SIK2 and at SIK1 was 10 to 100 nM throughout. In assay [1] (Homo sapiens, Macrophage), this compound yielded an EC50 greater than 5000 nM.

For `COc1cc(-c2cnc3cc(-c4cnn(C)c4)ccn23)cc(OC)c1C(=O)NC(C)C` [compound 171, N-isopropyl-2,6-dimethoxy-4-[7-(1-methylpyrazol-4-yl)imidazo[1,2-a]pyridin-3-yl]benzamide], the IC50 against SIK3, on SIK2 and at SIK1 was 10 to 100 nM throughout. The compound also displayed an EC50 in assay [1] (Homo sapiens, Macrophage) of 0.1 to 100 nM.

For the compound `COc1cc(-c2cnc3cc(-c4cnn(C)c4)ccn23)cc(NCCO)c1C(=O)NCC(F)(F)F` [compound 205, 2-(2-hydroxyethylamino)-6-methoxy-4-[7-(1-methylpyrazol-4-yl)imidazo[1,2-a]pyridin-3-y 1]-N-(2,2,2-trifluoroethyl)benzamide], the figures for the IC50 at SIK3, on SIK2 and at SIK1 were 0.01 to 10 nM, 0.01 to 10 nM and 10 to 100 nM, respectively. In assay [1] (Homo sapiens, Macrophage), this compound displayed an EC50 of 0.1 to 100 nM.

Regarding `COc1cc(-c2cnc3cc(-c4cnn(C)c4)ccn23)cc(OC)c1C(=O)N1CC(C)(C)C1` [compound 208, [2,6-dimethoxy-4-[7-(1-methylpyrazol-4-yl)imidazo[1,2-a]pyridin-3-yl]phenyl]-(3,3-dimethylazetidin-1-yl)methanone], the IC50 on SIK3, on SIK2 and on SIK1 was 0.01 to 10 nM each time. In addition, the EC50 in assay [1] (Homo sapiens, Macrophage) lay within 100 to 1000 nM.

Turning to `COc1cc(-c2cnc3cc(-c4cnn(C)c4)ccn23)cc(OC)c1C(=O)N1CCC(C#N)C1` (stereo not shown) [compound 210, 1-[2,6-dimethoxy-4-[7-(1-methylpyrazol-4-yl)imidazo[1,2-a]pyridin-3-yl]benzoyl]pyrrolidine-3-carbonitrile], the IC50 lay in the range of 0.01 to 10 nM on SIK3, 10 to 100 nM on SIK2 and 10 to 100 nM at SIK1. In assay [1] (Homo sapiens, Macrophage), this compound registered an EC50 of 100 to 1000 nM.

On to `C#CC1(O)CN(C(=O)c2c(OC)cc(-n3cnc4cc(-c5cnn(C)c5)ccc43)cc2OC)C1` [compound 221, [2,6-dimethoxy-4-[5-(1-methylpyrazol-4-yl)benzimidazol-1-yl]phenvl]-(3-ethynyl-3-hydroxy-azetidin-1-yl)methanone], for which the IC50 at SIK3, at SIK2 and at SIK1 was 10 to 100 nM throughout. The compound further showed an EC50 in assay [1] (Homo sapiens, Macrophage) of 100 to 1000 nM.

As to `COc1cc(-c2cnc3cc(-c4cc(C)no4)ccn23)cc(OC)c1C(=O)NCC(F)(F)F` [compound 232, 2,6-dimethoxy-4-[7-(3-methylisoxazol-5-yl)imidazo[1,2-a]pyridin-3-yl]-N-(2,2,2-trifluoroethyl)benzamide], the IC50 at SIK3 lay within 0.01 to 10 nM; on SIK2 it was 0.01 to 10 nM; at SIK1, 10 to 100 nM. For the same compound, the EC50 in assay [1] (Homo sapiens, Macrophage) was in the range of 0.1 to 100 nM.

Regarding `COc1cc(-c2cnc3cc(-c4cnn(CC(=O)OC5CC5)c4)ccn23)cc(OC)c1C(=O)NCC(F)(F)F` [compound 234, cyclopropyl 2-[4-[3-[3,5-dimethoxy-4-(2,2,2-trifluoroethyl-carbamoyl)phenyl]imidazo[1,2-a]pyridin-7-yl]pyrazol-1-yl]acelate], the IC50 against SIK3, at SIK2 and on SIK1 was 0.01 to 10 nM in each case. The same compound gave an EC50 in assay [1] (Homo sapiens, Macrophage) of 0.1 to 100 nM.

On to `COc1ncc(-c2ccn3c(-c4cc(OC)c(C(=O)NCC(F)(F)F)c(OC)c4)cnc3c2)cn1` [compound 241, 2,6-dimethoxy-4-[7-(2-methoxypyrimidin-5-yl)imidazo[1,2-a]pyridin-3-yl]-N-(2,2,2-trifluoroethyl)benzamide], for which the figures for the IC50 against SIK3, at SIK2 and on SIK1 were 10 to 100 nM, 100 to 500 nM and 100 to 500 nM, respectively. Besides, the EC50 in assay [1] (Homo sapiens, Macrophage) was 100 to 1000 nM.

Regarding `COc1cc(-c2cnc3cc(-c4cncnc4)ccn23)cc(OC)c1C(=O)NCC(F)(F)F` [compound 242, 2,6-dimethoxy-4-(7-pyrimidin-5-ylimidazo[1,2-a]pyridin-3-yl)-N-(2,2,2-trifluoroethyl)benzamide], the results for the half-inhibitory concentration (IC50) against SIK3, on SIK2 and on SIK1 were 10 to 100 nM, 100 to 500 nM and 100 to 500 nM, respectively. Further, the EC50 in assay [1] (Homo sapiens, Macrophage) was in the range of 1000 to 5000 nM.

As for `COc1cc(-c2cnc3cc(-c4cnn(C(C)C(=O)OC(C)(C)C)c4)ccn23)cc(OC)c1C(=O)NCC(F)(F)F` (stereo not shown) [compound 243, tert-butyl 2-[4-[3-[3,5-dimethoxy-4-(2,2,2-trifluoroethyl-carbamoyl)phenyl]imidazol[1,2-a]pyridin-7-yl]pyrazol-1-yl]propanoate], the IC50 at SIK3, at SIK2 and at SIK1 was 0.01 to 10 nM each time. The compound also came in with an EC50 in assay [1] (Homo sapiens, Macrophage) of 0.1 to 100 nM.

For `COC(=O)C(C)n1cc(-c2ccn3c(-c4cc(OC)c(C(=O)NCC(F)(F)F)c(OC)c4)cnc3c2)cn1` (stereo not shown) [compound 244, methyl 2-[4-[3-[3,5-diinethoxy-4-(2,2,2-trifluoroethyl-carbamoyl)phenyl]imidazo[1,2-a]pyridin-7-yl]pyrazol-1-yl]propanoate], the IC50 on SIK3 (33P radioactive SIK kinase assay, AMARA peptide, 15 μM ATP) fell in the range of 0.01 to 10 nM; at SIK2, 0.01 to 10 nM; at SIK1, 0.01 to 10 nM. Also, the EC50 in assay [1] was 0.1 to 100 nM.

Source of the values: US12065443B2, “Compounds and pharmaceutical compositions thereof for the treatment of diseases” (priority 2017, dated 2024).
